# According to ChEMBL document CHEMBL1201862, “PubChem BioAssay data set” (2004):
#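 All cell lines were grown in 96-well plates and treated with compound for 48 hours. Here, GI50 denotes the concentration required for 50% inhibition of growth.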 The source made the active and inactive calls. No stated cut-off is given here; in the data, active = GI50 up to about 1.1 µM and inactive = higher.
# Experiments:
# Experiment in all cases: NCI tumour cell line growth inhibition, 48 h
# CAKI-1 = system: CAKI-1
# HCT-116 = system: HCT-116
# HCT-15 = system: HCT-15
# HL-60 = system: HL-60
# HOP-18 = system: HOP-18
# HOP-92 = system: HOP-92
# K562 = system: K562
# KM12 = system: KM12
# M14 = system: M14
# M19-MEL = system: M19-MEL
# MDA-MB-231 = system: MDA-MB-231
# MDA-MB-435 = system: MDA-MB-435
# MDA-N = system: MDA-N
# Malme-3M = system: Malme-3M
# OVCAR-4 = system: OVCAR-4
# SK-MEL-2 = system: SK-MEL-2
# SK-MEL-5 = system: SK-MEL-5
# SR = system: SR
# TK-10 = system: TK-10
# U-251 = system: U-251
smiles,measurement,setting,value
CN/N=C(/CCN1CCCC1)CC(c1ccccc1)c1c(O)c2ccccc2oc1=O (stereo not given),GI50,CAKI-1,> 100 µM (inactive)
same,GI50,HCT-116,> 100 µM (inactive)
same,GI50,HCT-15,> 100 µM
same,GI50,HL-60,61.5 µM (inactive)
same,GI50,HOP-18,> 100 µM (inactive)
same,GI50,HOP-92,0.804 µM (active)
same,GI50,K562,> 100 µM (inactive)
same,GI50,KM12,> 100 µM (inactive)
same,GI50,M14,> 100 µM (inactive)
same,GI50,M19-MEL,> 100 µM (inactive)
same,GI50,MDA-MB-231,> 100 µM (inactive)
same,GI50,MDA-MB-435,> 100 µM (inactive)
same,GI50,MDA-N,> 100 µM (inactive)
same,GI50,Malme-3M,39.4 µM (inactive)
same,GI50,OVCAR-4,> 100 µM (inactive)
same,GI50,SK-MEL-2,> 100 µM (inactive)
same,GI50,SK-MEL-5,> 75.5 µM (inactive)
same,GI50,SR,> 94.6 µM (inactive)
same,GI50,TK-10,> 100 µM (inactive)
same,GI50,U-251,> 100 µM (inactive)
